Assay results taken from patent US20080050759A1, “Screening Assay for Anti-Bacterial Compounds” (Bayer Healthcare AG, priority 2003, published 2008).
Values after ≈ are worked out from the molar mass of the structure shown. Like-named read-outs stand apart in the source and are kept apart here.

Experiments:
[1] = tested on: S30 extracts from S. aureus 133; test: Gram-positive in vitro coupled transcription/translation (T/T) assay, S. aureus S30 extract; format: biochemical
Method: A procedure similar to the preparation of S30 extracts described by Murray et. al. (2) was used for S. aureus. Brain heart infusion (BHI) medium (6 l) was inoculated with 250 ml overnight culture of S. aureus 133 grown in BHI at 37° C. with agitation (170 rpm). Cells were cultured at 37° C. until an OD595nm of 2.5 was reached prior to centrifugation at 6000×g for 15 min at 4° C. Pellets were washed once with 500 ml cold S30-buffer A (10 mM Tris-acetate pH 8.0, 14 mM Mg-acetate, 1 mM DTT, 1 M KCl) and once with 250 ml of cold S30-buffer A containing 50 mM KCl. Pellets were frozen for 1 h at −20° C. or overnight at −70° C., thawed on ice and resuspended to a final volume of 99 ml buffer B (10 mM Tris-acetate pH 8.0, 20 mM Mg-acetate, 1 mM DTT, 50 mM KCl). A 1.5 ml aliquote of lysostaphin (0.8 mg/ml) in buffer B was added to each of three centrifuge tubes and 33 ml of the cell suspension were added. Samples were incubated at 37° C. for 1 h with gentle agitation prior to the addition of 150 μl 0.5 M DTT. Lysed cells were centrifuged for 30 min at 30,000×g at 4° C. and the resulting pellet was washed once with 33 ml S30-buffer B. The pooled supernatants were recentrifuged at 30,000×g for 30 min at 4° C. 100 ml of the supernatant were incubated with 25 ml preincubation buffer (670 mM Tris-acetate pH 8.0, 20 mM Mg-acetate, 7 mM Na3-PEP, 7 mM DTT, 5.5 mM ATP, 70 μM amino acids complete [Promega], 75 μg pyruvate kinase [Sigma]/ml) for 30 min at 37° C. to translate mRNAs. The preincubated supernatants were dialysed at 4° C. against 2 l of 10 mM Tris-acetate pH 8.0, 14 mM Mg-acetate, 1 mM DTT, 60 mM KCl with one buffer change using a Spectra-Por dialysis bag with a molecular weight cutoff of 3,500. The dialysate was gently concentrated by covering the dialysis bag with polyethylene glycol 8,000 powder (Sigma) at 4° C. to a protein concentration of ˜10 mg/ml. The resulting S30 extracts were flash frozen and stored in aliquots at −70° C.
(§1) The final assay volume was 59 μl. Inhibitor (3 μl dissolved in 10% DMSO), plasmid DNA (10 μl of optimal concentration in water pH 8.0) and 46 μl S30 extract [optimal concentration in 23 μl premixed with 23 μl incubation buffer (0.5 M potassium acetate, 87.5 mM Tris/acetate pH 8.0, 67.5 mM ammonium acetate, 50 μg/ml folinic acid, 5 mM DTT, 87.5 mg/ml polyethylene glycol 8000, 5 mM ATP; 1.25 mM of each CTP, GTP and UTP; 0.02 mM amino acids, 50 mM phosphoenolpyruvate trisodium salt, 2.5 mM cyclic AMP, 250 μg of each E. coli tRNA/ml) were added and incubated at 30° C. for 1 h. When using pT7-FF as a template 0.05 μl or 0.1 μl (50 U/μl) T7-RNA-Polymerase (Gibco BRL) were added to the S30 extracts used in the assay. Newly synthesized luciferase was detected by measuring bioluminescence for 60 s in a luininometer after the addition of 50 μl substrate buffer containing luciferine (20 mM Tricine/Cl pH 7.8, 2.67 mM MgSO4, 0.1 mM EDTA, 33.3 mM DTT, 0.27 mM Coenzyme A, 0.47 mM luciferine, 0.53 mM ATP).
MIC (minimal inhibitory concentration) values were determined as described in Example 4. Numbers in square brackets relate to the unit in square brackets as given in the column heading.

[2] = tested on: S30 extracts from S. pneumoniae 1707/4; test: Gram-positive in vitro coupled transcription/translation (T/T) assay, S. pneumoniae S30 extract; format: biochemical
Method: S. pneumoniae 1707/4 was grown overnight at 37° C. on agar plates containing 5% sheep blood under microaerophilic conditions. Cells were collected and inoculated into 4.8 l of BHI medium containing 5% bovine serum prior to cultivation at 37° C. under microaerophilic conditions for 5 h. S30 extracts were prepared as described for S. aureus 133 with some modifications. Cells were harvested and washed by centrifugation at 20,000×g for 15 min. The resulting cell pellet was resuspended in 20 ml buffer B, 3 mg lysozyme were added, incubated for 40 min at 37° C. prior to the addition of 75 μl 0.5 M DTT. The S30 sediment was washed with 8 ml buffer B and 7 ml preincubation buffer were added to the pooled supernatants.
as §1
(§2) The shape of the inhibition profiles is more or less similar for these compounds, in case of Streptomycin the lower IC50 value for S. aureus 133 compared to E. faecalis 27263 can be seen. templates pXyl-FF and pT7-FF with S30 extracts of the indicated bacterial strains. […] MIC (minimal inhibitory concentration) values were determined as described in Example 4. Numbers in square brackets relate to the unit in square brackets as given in the column heading.

[3] = tested on: S30 extracts from E. faecalis 27263; test: Gram-positive in vitro coupled transcription/translation (T/T) assay, E. faecalis S30 extract; format: biochemical
Method: E. faecalis 26273 was grown overnight in 250 ml BHI medium containing 2% bovine serum at 37° C. under microaerophilic conditions. The overnight culture was used to inoculate 4.8 1 BHI medium, cells were incubated at 37° C. under microaerophilic conditions with agitation (170 rpm) until an OD600 nm of ˜1.6 was reached. Preparation of S30 extracts was done as described for S. aureus with the following exceptions. Cells were harvested and washed at 7000×g at 4° C. for 12 min and resuspended in 100 ml S30-buffer B. For cell lysis 15 mg lysozyme resuspended in 1 ml S30-buffer B were added and incubated for 2 h at 37° C. with agitation. To complete cell lysis extracts were passed once through a French Press at 600 psi.
as §1, §2

E. faecalis 27263 = test: Minimum inhibitory concentration, micro broth dilution; format: cell-based
Method: (§3) MIC determinations were performed using the micro broth dilution method with an inoculum of 5×10^5 cfu/ml in BHI medium. Growth was read after 24 h of incubation at 37° C. Test compounds were dissolved in dimethyl sulfoxide and diluted to a concentration not higher than 2.5% dimethyl sulfoxide. For S. pneumoniae 1707/4 and E. faecalis 27263 16% bovine serum were added and incubated under microaerophilic conditions.

S. aureus 133 = test: as above; format: cell-based
Method: as §3

S. pneumoniae 1707/4 = test: as above; format: cell-based
Method: as §3

[4] = tested on: S30 extracts derived from all three Gram-positives; test: In vitro coupled T/T assay, for all three Gram-positive S30 extracts; format: biochemical, S. aureus, S. pneumoniae, E. faecalis; details: at high concentrations
Method: To validate the in vitro coupled T/T assay for screening of potential inhibitors of transcription and translation several antibiotics of known mode of action were tested.

[5] = template pT7-FF with T7 RNA polymerase, read-out: IC50
[6] = template pT7-FF, value in square brackets
[7] = template pXyl-FF, 50% inhibition of in vitro translation of luciferase, read-out: IC50
[8] = template pXyl-FF, value in square brackets
[9] = template pXyl-FF, read-out: IC50
[10] = Enterococcus faecalis, 27263, BHI medium, 16% bovine serum, microaerophilic, 24 h, 37° C., read-out: MIC
[11] = Staphylococcus aureus, 133, BHI medium, 24 h, 37° C., read-out: MIC
[12] = Streptococcus pneumoniae, 1707/4, BHI medium, 16% bovine serum, microaerophilic, 24 h, 37° C., read-out: MIC
[13] = Enterococcus faecalis, 27263, 24 h
[14] = Streptococcus pneumoniae, 1707/4, 24 h
[15] = BHI medium, 16% bovine serum, microaerophilic, 24 h, 37° C.

Row | Compound | IC50 [1, 5] [µM] | IC50 [1, 6] [µg/mL] | IC50 [1, 7] [µM] | IC50 [1, 8] [µg/mL] | IC50 [2, 5] [µM] | IC50 [2, 6] [µg/mL] | IC50 [3, 5] [µM] | IC50 [3, 6] [µg/mL] | IC50 [3, 9] [µM] | IC50 [3, 8] [µg/mL] | MIC (E. faecalis 27263; [10]) [µg/mL] | MIC (S. aureus 133; [11]) [µg/mL] | MIC (S. pneumoniae 1707/4; [12]) [µg/mL] | inhibition in the in vitro coupled T/T assay [4] | MIC (E. faecalis 27263; [13]) [µg/mL] | MIC (S. pneumoniae 1707/4; [14]) [µg/mL] | MIC (E. faecalis 27263; [15]) [µg/mL] | MIC (S. aureus 133; BHI medium, 24 h, 37° C.) [µg/mL] | MIC (S. pneumoniae 1707/4; [15]) [µg/mL] | MIC (S. aureus 133; Staphylococcus aureus, 133, 24 h) [µg/mL]
1 | CC1(C)S[C@@H]2[C@H](NC(=O)[C@H](N)c3ccccc3)C(=O)N2[C@H]1C(=O)O [Ampicillin] | > 142 | > 50 | > 285 | > 100 | > 285 | > 100 | > 142 | > 50 | > 142 | > 50 | 3.1 (≈ 8.87 µM) | 0.4 (≈ 1.14 µM) | 0.12 (≈ 0.343 µM) | no or only weak inhibition |  |  |  |  |  | 
2 | O=C(N[C@H](CO)[C@H](O)c1ccc([N+](=O)[O-])cc1)C(Cl)Cl [Chloramphenicol] | 7.4 | 2.4 | 9.3 | 3.0 | 11.8 | 3.8 | 16.7 | 5.4 | 14.9 | 4.8 | > 16 | 4 (≈ 12.4 µM) | 4 (≈ 12.4 µM) |  |  |  |  |  |  | 
3 | CC[C@H]1OC(=O)[C@H](C)[C@@H](O[C@H]2C[C@@](C)(OC)[C@@H](O)[C@H](C)O2)[C@H](C)[C@@H](O[C@@H]2O[C@H](C)C[C@H](N(C)C)[C@H]2O)[C@](C)(O)C[C@@H](C)C(=O)[C@H](C)[C@@H](O)[C@]1(C)O [Erythromycin] | 0.2 | 0.15 | 0.2 | 0.15 | 0.05 | 0.04 | 0.4 | 0.3 | 0.2 | 0.15 | > 100 | 0.1 (≈ 0.136 µM) | 0.1 (≈ 0.136 µM) |  |  |  |  |  |  | 
4 | CC(=O)NC[C@H]1CN(c2ccc(N3CCOCC3)c(F)c2)C(=O)O1 [Linezolid] | 4.1 | 1.2 | 4.1 | 1.2 | 5.8 | 1.7 | 3.4 | 1.0 | 3.1 | 0.9 | 2 (≈ 5.93 µM) | 2 (≈ 5.93 µM) | 1 (≈ 2.96 µM) |  |  |  |  |  |  | 
5 | COc1c(N2C[C@@H]3CCCN[C@@H]3C2)c(F)cc2c(=O)c(C(=O)O)cn(C3CC3)c12 [Moxifloxacin] |  |  |  |  |  |  |  |  |  |  |  | 0.06 (≈ 0.149 µM) |  |  | 0.5 (≈ 1.25 µM) | 0.25 (≈ 0.623 µM) |  |  |  | 
6 | CO[C@H]1/C=C/O[C@@]2(C)Oc3c(C)c(O)c4c(O)c(c(/C=N/N5CCN(C)CC5)c(O)c4c3C2=O)NC(=O)/C(C)=C\C=C\[C@H](C)[C@H](O)[C@@H](C)[C@@H](O)[C@@H](C)[C@H](OC(C)=O)[C@@H]1C [Rifampicin] |  |  |  |  |  |  |  |  |  |  | 3.1 (≈ 3.77 µM) | < 0.05 | < 0.05 |  |  |  |  |  |  | 
7 | [H]/N=C(/N)N[C@H]1[C@H](O)[C@@H](O)[C@H](O[C@@H]2O[C@@H](C)[C@](O)(C=O)[C@H]2O[C@@H]2O[C@@H](CO)[C@H](O)[C@@H](O)[C@@H]2NC)[C@@H](N/C(N)=N\[H])[C@@H]1O [Streptomycin] | 0.02 | 0.03 | 0.05 | 0.07 | 0.01 | 0.02 | 0.41 | 0.6 | 0.48 | 0.7 | > 100 | 6.25 (≈ 10.7 µM) | > 100 |  |  |  |  |  |  | 
8 | CN(C)[C@@H]1C(=O)C(C(N)=O)=C(O)[C@@]2(O)C(=O)C3=C(O)c4c(O)cccc4[C@@](C)(O)[C@H]3C[C@@H]12 [Tetracyclin] | 0.6 | 0.25 | 0.9 | 0.4 | 0.45 | 0.2 | 2.3 | 1.0 | 1.8 | 0.8 |  |  |  |  |  |  | >100 | 0.05 (≈ 0.113 µM) | 0.2 (≈ 0.45 µM) | 
9 | CN[C@H](CC(C)C)C(=O)N[C@H]1C(=O)N[C@@H](CC(N)=O)C(=O)N[C@H]2C(=O)N[C@H]3C(=O)N[C@H](C(=O)N[C@H](C(=O)O)c4cc(O)cc(O)c4-c4cc3ccc4O)[C@H](O)c3ccc(c(Cl)c3)Oc3cc2cc(c3O[C@@H]2O[C@H](CO)[C@@H](O)[C@H](O)[C@H]2O[C@H]2C[C@](C)(N)[C@H](O)[C@H](C)O2)Oc2ccc(cc2Cl)[C@H]1O [Vancomycin] | > 34 | > 50 | > 67 | > 100 | > 34 | > 50 | > 34 | > 50 | > 34 | > 50 |  |  |  | no or only weak inhibition | 2 (≈ 1.38 µM) | 0.25 (≈ 0.173 µM) |  |  |  | 0.25 (≈ 0.173 µM)
